{"source": "patent US7410975B2", "about": "“Small molecule toll-like receptor (TLR) antagonists” (Coley Pharmaceutical Group, Inc., priority 2003, dated 2008)", "molecular_target": "T1, human TLR8 (hTLR8) (Homo sapiens, UniProt Q9NR97)", "T1 construct": "expressed in transfected cells", "T1 sequence (Q9NR97 27-1041)": "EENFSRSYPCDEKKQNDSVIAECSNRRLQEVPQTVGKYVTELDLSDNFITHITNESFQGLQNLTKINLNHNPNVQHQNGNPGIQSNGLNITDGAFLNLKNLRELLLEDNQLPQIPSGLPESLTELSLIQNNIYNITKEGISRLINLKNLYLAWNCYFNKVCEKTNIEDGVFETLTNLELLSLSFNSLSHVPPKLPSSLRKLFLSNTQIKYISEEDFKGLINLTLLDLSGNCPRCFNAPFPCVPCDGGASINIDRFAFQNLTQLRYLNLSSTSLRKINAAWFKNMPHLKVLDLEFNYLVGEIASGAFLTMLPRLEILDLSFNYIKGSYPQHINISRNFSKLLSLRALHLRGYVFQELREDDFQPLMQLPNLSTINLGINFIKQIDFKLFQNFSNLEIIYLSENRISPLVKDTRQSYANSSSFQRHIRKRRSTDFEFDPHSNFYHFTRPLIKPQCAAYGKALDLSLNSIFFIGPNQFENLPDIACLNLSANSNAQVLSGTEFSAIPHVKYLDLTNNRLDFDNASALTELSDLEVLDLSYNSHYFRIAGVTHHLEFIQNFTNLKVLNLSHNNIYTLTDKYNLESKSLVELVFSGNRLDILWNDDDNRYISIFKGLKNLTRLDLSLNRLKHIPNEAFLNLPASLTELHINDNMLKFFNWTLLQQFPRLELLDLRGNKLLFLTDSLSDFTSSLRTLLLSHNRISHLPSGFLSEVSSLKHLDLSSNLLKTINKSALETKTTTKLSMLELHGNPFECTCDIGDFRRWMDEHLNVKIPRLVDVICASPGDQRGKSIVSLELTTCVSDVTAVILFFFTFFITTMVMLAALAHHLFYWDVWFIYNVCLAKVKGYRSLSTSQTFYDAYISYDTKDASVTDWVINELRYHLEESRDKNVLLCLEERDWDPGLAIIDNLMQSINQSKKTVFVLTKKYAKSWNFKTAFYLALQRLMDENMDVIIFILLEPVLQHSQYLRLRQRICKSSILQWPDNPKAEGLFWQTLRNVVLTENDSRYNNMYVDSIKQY", "assay": "Antagonist screen, hTLR8-NFκB-293 cells, NF-κB-luciferase reporter, with EC50 of R848", "format": "cell-based", "conditions": "compound at 0.5, 5, 50 μg/ml; EC50 concentration of R848; 16 h; NF-κB-luciferase", "protocol": "The method is described in greater detail as follows. The cells for each individual cell clone (hTLR3-NFκB-293, hTLR7-NFκB-293, hTLR8-NFκB-293 and hTLR9-NFκB-293) were counted and seeded one day before the stimulation at 1.5×10^4 cells per well in 96-well cell culture plates. To become adherent the cells were incubated after seeding overnight at 37° C. in 5% CO2 humidified air.\nThe screen for each compound was performed at the same time for all of the receptors TLR3, TLR7, TLR8 and TLR9. Up to fifteen test compounds, each assayed in duplicate at each of three different final concentrations (0.5 μg/ml, 5 μg/ml, and 50 μg/ml), were used for 16 h cell stimulation on a single multiwell culture plate. A 4× final concentration master plate was created to prepare the different test compounds before they were added to the cells.\nControls were added as duplicates individually for each cell clone on the cell culture plate. Positive controls were used as follows (final concentrations): 50 μg/ml poly(I:C) for hTLR3-NFκB-293; 8 μM resiquimod (R848) for hTLR7-NFκB-293; 30 μM R848 for hTLR8-NFκB-293; and 2.5 μM CpG-ODN 2006 for hTLR9-NFκB-293. Media alone was used as negative control. After addition of controls and small molecules, the cell clones were additionally stimulated with the EC50 concentration of the appropriate receptor-specific ligand.\nThe mean value of wells H2 and H5 (each with cells and EC50 concentration of the appropriate receptor-specific ligand) divided by the mean of wells H3 and H6 (each with cells alone) yielded the baseline response (i.e., fold induction of luciferase activity) to EC50 concentration of the appropriate receptor-specific ligand.\nAfter 16 h stimulation the supernatant was removed and the cells treated with lysis buffer and stored at −80° C. before measuring.\nFor each screen result a graphical documentation was performed.\nThe baseline result (measured with addition of the EC50 concentration of the receptor-specific ligand) for each cell culture plate was measured as described above. Antagonistic effects were measured by down regulation compared to the baseline. Antagonists were scored as follows: • 13: compounds for which there was clear down regulation at 0.5 μg/ml, 5 μg/ml, and 50 μg/ml; • 12: compounds for which there was clear down regulation at 5 μg/ml and 50 μg/ml; • 11: compounds for which there was clear down regulation only at 50 μg/ml; • —: compounds for which there was no clear down regulation even at 50 μg/ml. Agonists\nResults were expressed as fold induction over baseline luciferase activity measured in the absence of R848. […] Additional screening was performed in like manner using additional small molecules selected from another library or specifically prepared for this purpose. Scoring is reported as above but as applied to TLR8.", "data": [{"smiles": "CC1NCCc2c1[nH]c1ccccc21.Cl", "note": "(racemic) [compound 619, Eleagnine hydrochloride (R,S)]", "values": [{"measurement": "hTLR8 (inhibitory effect, antagonist score)", "value": "— (compounds for which there was no clear down regulation even at 50 μg/ml)"}]}, {"smiles": "O=C1c2c(O)cccc2Cc2cccc(O)c21", "note": "[compound 43, Anthralin]", "values": [{"measurement": "hTLR8 (inhibitory effect, antagonist score)", "value": "12 (compounds for which there was clear down regulation at 5 μg/ml and 50 μg/ml)"}]}, {"smiles": "CN(C)CCCN1c2ccccc2Sc2ccc(C(F)(F)F)cc21.Cl", "note": "[compound 53, Triflupromazinehydrochloride]", "values": [{"measurement": "hTLR8 (inhibitory effect, antagonist score)", "value": "11 (compounds for which there was clear down regulation only at 50 μg/ml)"}]}, {"smiles": "CN(C)CCCN1c2ccccc2Sc2ccc(Cl)cc21.Cl", "note": "[compound 64, Chlorpromazinehydrochloride]", "values": [{"measurement": "hTLR8 (inhibitory effect, antagonist score)", "value": "11 (compounds for which there was clear down regulation only at 50 μg/ml)"}]}, {"smiles": "CN(C)CCC=C1c2ccccc2CCc2ccccc21.Cl", "note": "[compound 74, Amitryptilinehydrochloride]", "values": [{"measurement": "hTLR8 (inhibitory effect, antagonist score)", "value": "— (compounds for which there was no clear down regulation even at 50 μg/ml)"}]}, {"smiles": "OC(c1ccccc1)(c1ccccc1)C1CCNCC1", "note": "[compound 93, Azacyclonol]", "values": [{"measurement": "hTLR8 (inhibitory effect, antagonist score)", "value": "— (compounds for which there was no clear down regulation even at 50 μg/ml)"}]}, {"smiles": "CN1Cc2c(N)cccc2C(c2ccccc2)C1.O=C(O)/C=C\\C(=O)O", "note": "(centres unmarked) [compound 108, Nomifensine maleate]", "values": [{"measurement": "hTLR8 (inhibitory effect, antagonist score)", "value": "— (compounds for which there was no clear down regulation even at 50 μg/ml)"}]}, {"smiles": "C[C@]12N[C@H](Cc3ccccc31)c1ccccc12.O=C(O)/C=C\\C(=O)O", "note": "[compound 109, Dizocilpine maleate]", "values": [{"measurement": "hTLR8 (inhibitory effect, antagonist score)", "value": "— (compounds for which there was no clear down regulation even at 50 μg/ml)"}]}, {"smiles": "OCCN1CCN(CCCN2c3ccccc3Sc3ccc(Cl)cc32)CC1", "note": "[compound 125, Perphenazine]", "values": [{"measurement": "hTLR8 (inhibitory effect, antagonist score)", "value": "11 (compounds for which there was clear down regulation only at 50 μg/ml)"}]}, {"smiles": "CN1CCN(CCCN2c3ccccc3Sc3ccc(S(=O)(=O)N(C)C)cc32)CC1.CS(=O)(=O)O.CS(=O)(=O)O", "note": "[compound 149, Thioproperasinedimesylate]", "values": [{"measurement": "hTLR8 (inhibitory effect, antagonist score)", "value": "— (compounds for which there was no clear down regulation even at 50 μg/ml)"}]}, {"smiles": "Clc1ccccc1C(c1ccccc1)(c1ccccc1)n1ccnc1", "note": "[compound 267, Clotrimazole]", "values": [{"measurement": "hTLR8 (inhibitory effect, antagonist score)", "value": "12 (compounds for which there was clear down regulation at 5 μg/ml and 50 μg/ml)"}]}, {"smiles": "CC(NCCC(c1ccccc1)c1ccccc1)c1ccccc1.Cl", "note": "(centres unmarked) [compound 270, Fendiline hydrochloride]", "values": [{"measurement": "hTLR8 (inhibitory effect, antagonist score)", "value": "12 (compounds for which there was clear down regulation at 5 μg/ml and 50 μg/ml)"}]}, {"smiles": "CN1CCC(=C2c3ccccc3Sc3ccccc32)CC1.O=C(O)/C=C\\C(=O)O", "note": "[compound 294, Pimethixene maleate]", "values": [{"measurement": "hTLR8 (inhibitory effect, antagonist score)", "value": "11 (compounds for which there was clear down regulation only at 50 μg/ml)"}]}, {"smiles": "O=c1[nH]c2ccccc2n1C1CCN(CCCC(c2ccc(F)cc2)c2ccc(F)cc2)CC1", "note": "[compound 308, Pimozide]", "values": [{"measurement": "hTLR8 (inhibitory effect, antagonist score)", "value": "11 (compounds for which there was clear down regulation only at 50 μg/ml)"}]}, {"smiles": "Cl.Cl.OCCN1CCN(CC/C=C2/c3ccccc3Sc3ccc(C(F)(F)F)cc32)CC1", "note": "[compound 340, Flupentixoldihydrochloride cis-(Z)]", "values": [{"measurement": "hTLR8 (inhibitory effect, antagonist score)", "value": "11 (compounds for which there was clear down regulation only at 50 μg/ml)"}]}, {"smiles": "CNCCCN1c2ccccc2CCc2ccccc21.Cl", "note": "[compound 343, Desipraminehydrochloride]", "values": [{"measurement": "hTLR8 (inhibitory effect, antagonist score)", "value": "11 (compounds for which there was clear down regulation only at 50 μg/ml)"}]}, {"smiles": "CN(C)CC/C=C1/c2ccccc2Sc2ccc(Cl)cc21.Cl", "note": "[compound 348, Chlorprothixenehydrochloride]", "values": [{"measurement": "hTLR8 (inhibitory effect, antagonist score)", "value": "11 (compounds for which there was clear down regulation only at 50 μg/ml)"}]}, {"smiles": "Cc1cccc(C)c1NC(=O)CN1CCN(CCCC(c2ccc(F)cc2)c2ccc(F)cc2)CC1", "note": "[compound 381, Lidoflazine]", "values": [{"measurement": "hTLR8 (inhibitory effect, antagonist score)", "value": "11 (compounds for which there was clear down regulation only at 50 μg/ml)"}]}, {"smiles": "Cl.Cl.Fc1ccc(C(OCCN2CCN(CCCc3ccccc3)CC2)c2ccc(F)cc2)cc1", "note": "[compound 386, GBR 12909hydrochloride]", "values": [{"measurement": "hTLR8 (inhibitory effect, antagonist score)", "value": "12 (compounds for which there was clear down regulation at 5 μg/ml and 50 μg/ml)"}]}, {"smiles": "Nc1cccc2c1C(=O)c1cccc(N)c1C2=O", "note": "[compound 413, Anthraquinone,1,5-diamino]", "values": [{"measurement": "hTLR8 (inhibitory effect, antagonist score)", "value": "11 (compounds for which there was clear down regulation only at 50 μg/ml)"}]}, {"smiles": "CN1CCC2C(C1)c1ccccc1N2Cc1ccccc1", "note": "(centres unmarked) [compound 455, Mebhydroline 1,5 naphtalenedisulfonate]", "values": [{"measurement": "hTLR8 (inhibitory effect, antagonist score)", "value": "— (compounds for which there was no clear down regulation even at 50 μg/ml)"}]}, {"smiles": "Cc1cccc(CN2CCN(C(c3ccccc3)c3ccc(Cl)cc3)CC2)c1.Cl.Cl", "note": "(centres unmarked) [compound 457, Meclozinedihydrochioride]", "values": [{"measurement": "hTLR8 (inhibitory effect, antagonist score)", "value": "— (compounds for which there was no clear down regulation even at 50 μg/ml)"}]}, {"smiles": "c1ccc2c(c1)[nH]c1cnccc12", "note": "[compound 470, norharman]", "values": [{"measurement": "hTLR8 (inhibitory effect, antagonist score)", "value": "11 (compounds for which there was clear down regulation only at 50 μg/ml)"}]}, {"smiles": "CN(C)CC/C=C1/c2ccccc2CSc2ccccc21.Cl", "note": "[compound 488, Dosulepin hydrochloride]", "values": [{"measurement": "hTLR8 (inhibitory effect, antagonist score)", "value": "— (compounds for which there was no clear down regulation even at 50 μg/ml)"}]}, {"smiles": "CN1CCN(C(c2ccccc2)c2ccccc2)CC1.Cl", "note": "[compound 510, Cyclizine hydrochloride]", "values": [{"measurement": "hTLR8 (inhibitory effect, antagonist score)", "value": "— (compounds for which there was no clear down regulation even at 50 μg/ml)"}]}, {"smiles": "CN1CCCCC1CCN1c2ccccc2Sc2ccc([S+](C)[O-])cc21.O=S(=O)(O)c1ccccc1", "note": "(centres unmarked) [compound 529, Mesoridazine besylate]", "values": [{"measurement": "hTLR8 (inhibitory effect, antagonist score)", "value": "— (compounds for which there was no clear down regulation even at 50 μg/ml)"}]}, {"smiles": "CCOC(=O)Oc1c(OC)cc(C(=O)O[C@@H]2C[C@@H]3CN4CCc5c([nH]c6cc(OC)ccc56)[C@H]4C[C@@H]3[C@H](C(=O)OC)[C@H]2OC)cc1OC", "note": "[compound 564, Syrosingopine]", "values": [{"measurement": "hTLR8 (inhibitory effect, antagonist score)", "value": "12 (compounds for which there was clear down regulation at 5 μg/ml and 50 μg/ml)"}]}, {"smiles": "COC(=O)[C@H]1[C@H]2C[C@@H]3c4[nH]c5cc(OC)ccc5c4CCN3C[C@H]2C[C@@H](OC(=O)/C=C/c2cc(OC)c(OC)c(OC)c2)[C@@H]1OC", "note": "[compound 568, Rescinnamin]", "values": [{"measurement": "hTLR8 (inhibitory effect, antagonist score)", "value": "— (compounds for which there was no clear down regulation even at 50 μg/ml)"}]}, {"smiles": "CC(=O)c1ccc2c(c1)N(CCCN(C)C)c1ccccc1S2.O=C(O)/C=C\\C(=O)O", "note": "[compound 576, Acetopromazinemaleate salt]", "values": [{"measurement": "hTLR8 (inhibitory effect, antagonist score)", "value": "— (compounds for which there was no clear down regulation even at 50 μg/ml)"}]}]}
